The source of these data is ChEMBL document CHEMBL5625212, “De novo designed self-assembling helicomimetic lipooligoureas with antibacterial activity” (Eur J Med Chem, 2023).

≈ marks a conversion by molar mass, not a printed value.

Data set [1] has as its system Staphylococcus aureus. As to the kind of experiment: Antibacterial activity against methicillin resistant Staphylococcus aureus 5288/13 assessed as reduction in bacterial growth measured after 24 hrs by spectrophotometer based analysis. The data set is classed as functional.
Data set [2] concerns Staphylococcus aureus. Kind of data set: Antibacterial activity against methicillin resistant Staphylococcus aureus 401/5 assessed as reduction in bacterial growth measured after 24 hrs by spectrophotometer based analysis. The data set is classed as functional.
The subject of data set [3] is Staphylococcus aureus. Kind of data set: Antibacterial activity against Staphylococcus aureus ATCC 29213 assessed as reduction in bacterial growth measured after 24 hrs by spectrophotometer based analysis. The data set is classed as functional.
For data set [4], the system named is Enterococcus faecalis. Kind of data set: Antibacterial activity against Enterococcus faecalis ATCC 14506 assessed as reduction in bacterial growth measured after 24 hrs by spectrophotometer based analysis. The data set is classed as functional.
The subject of data set [5] is Staphylococcus aureus. As to the kind of experiment: Antibacterial activity against methicillin resistant Staphylococcus aureus 4811/13 assessed as reduction in bacterial growth measured after 24 hrs by spectrophotometer based analysis. The data set is classed as functional.
In data set [6] the test system is Staphylococcus epidermidis. Kind of data set: Antibacterial activity against Staphylococcus epidermidis ATCC 12228 assessed as reduction in bacterial growth measured after 24 hrs by spectrophotometer based analysis. The data set is classed as functional.
A short description of data set [7]: Proteolytic stability of the compound in human serum assessed as drug degradation measured after 96 hrs by RP-HPLC analysis. The settings on record: read-out: Drug degradation. The data set is classed as ADME, cell-free.
Data set [8] can be described thus: Aggregation property of compound in PBS assessed as critical aggregation concentration. The data set is classed as physicochemical. Conditions: buffer.
The subject of data set [9] is Klebsiella pneumoniae. As to the kind of experiment: Antibacterial activity against Klebsiella pneumoniae PCM 1 assessed as reduction in bacterial growth measured after 24 hrs by spectrophotometer based analysis. The data set is classed as functional.
Data set [10] relates to Pseudomonas aeruginosa. As to the kind of experiment: Antibacterial activity against Pseudomonas aeruginosa PA01 PCM 499 assessed as reduction in bacterial growth measured after 24 hrs by spectrophotometer based analysis. The data set is classed as functional.
A short description of data set [11]: Proteolytic stability of the compound in human serum assessed as drug degradation measured after 24 hrs by RP-HPLC analysis. The data set is classed as ADME, cell-free. The settings on record: read-out: Drug degradation.
Data set [12] deals with Salmonella typhimurium. Kind of data set: Antibacterial activity against Salmonella enterica subsp. enterica serovar Typhimurium TT622 assessed as reduction in bacterial growth measured after 24 hrs by spectrophotometer based analysis. The data set is classed as functional.
Data set [13] relates to Yersinia enterocolitica. As to the kind of experiment: Antibacterial activity against Yersinia enterocolitica PCM 2081 assessed as reduction in bacterial growth measured after 24 hrs by spectrophotometer based analysis. The data set is classed as functional.
Data set [14] has as its system Escherichia coli. As to the kind of experiment: Antibacterial activity against Escherichia coli ST2-8624 O157 H7 assessed as reduction in bacterial growth measured after 24 hrs by spectrophotometer based analysis. The data set is classed as functional.
Data set [15] in a line: Proteolytic stability of the compound in human serum assessed as drug degradation measured within 4 hrs by RP-HPLC analysis. The data set is classed as ADME, cell-free.

The MIC is the lowest concentration that inhibits growth of the organism. Regarding `CCCCCCCCCC(=O)N[C@@H](Cc1c[nH]c2ccccc12)C(=O)N[C@H](CC(N)=O)C(=O)N[C@@H](CC(=O)O)C(=O)N[C@@H]1C(=O)NCC(=O)N[C@@H](CCCN)C(=O)N[C@@H](CC(=O)O)C(=O)N[C@H](C)C(=O)N[C@@H](CC(=O)O)C(=O)NCC(=O)N[C@H](CO)C(=O)N[C@@H]([C@H](C)CC(=O)O)C(=O)N[C@@H](CC(=O)c2ccccc2N)C(=O)O[C@@H]1C`, the MIC in data set [1] worked out at 2 µg/mL (≈ 1.23 µM); in [2], 1.5 µg/mL (≈ 0.926 µM); in data set [3], 2 µg/mL (≈ 1.23 µM); in [4] it was 3.5 µg/mL (≈ 2.16 µM); in data set [5] it was 2 µg/mL (≈ 1.23 µM); in [6] it was 1 µg/mL (≈ 0.617 µM).
As for `CCCCCCCCCC(=O)N[C@H](CNC(=O)N[C@@H](CCCCN)CNC(=O)N[C@@H](CCCCN)CN[C@H](CNC(=O)N[C@@H](CCCCN)CNC(N)=O)CC(C)C)Cc1ccccc1`, the MIC was 40 µg/mL (≈ 43.6 µM) in data set [1]; 30 µg/mL (≈ 32.7 µM) in data set [2]; 30 µg/mL (≈ 32.7 µM) in data set [3]; 30 µg/mL (≈ 32.7 µM) in [5]; 30 µg/mL (≈ 32.7 µM) in data set [6]. The metabolised at 96 h in data set [7] came to 15%. Further, the CAC in data set [8] was found to be 79 µM.
For `CCCCCCCCCC(=O)N[C@H](CNC(=O)N[C@@H](CCN)CNC(=O)N[C@H](CN[C@H](CNC(=O)N[C@@H](CCN)CNC(N)=O)CC(C)C)CC(C)C)Cc1ccccc1`, the MIC in data set [1] was 5 µg/mL (≈ 5.9 µM); in data set [9], 20 µg/mL (≈ 23.6 µM); in data set [2], 5 µg/mL (≈ 5.9 µM); in data set [10] it was 10 µg/mL (≈ 11.8 µM); in data set [3] it was 5 µg/mL (≈ 5.9 µM); in data set [12] it was 20 µg/mL (≈ 23.6 µM). Also, the MIC in [4] was determined as 5 µg/mL (≈ 5.9 µM); in data set [5], 5 µg/mL (≈ 5.9 µM); in data set [13] it was 10 µg/mL (≈ 11.8 µM); in [14] it was 10 µg/mL (≈ 11.8 µM); in data set [6], 5 µg/mL (≈ 5.9 µM). The metabolised at 96 h in data set [7] was 8%. The metabolised at 24 h in data set [11] was found to be 4%. For the same compound, the CAC in data set [8] was 40 µM.
Take `CCCCCCCCCC(=O)N[C@H](CNC(=O)N[C@@H](CCN)CNC(=O)N[C@@H](CCN)CN[C@H](CNC(=O)N[C@@H](CCN)CNC(N)=O)CC(C)C)Cc1ccccc1`: the MIC in data set [1] turned out to be 30 µg/mL (≈ 36 µM); in data set [2] it was 20 µg/mL (≈ 24 µM); in data set [3] it was 20 µg/mL (≈ 24 µM); in data set [4], 40 µg/mL (≈ 48 µM); in [5] it was 30 µg/mL (≈ 36 µM); in data set [6], 20 µg/mL (≈ 24 µM). Moreover, in data set [7], the metabolised at 96 h was 8%. The CAC in data set [8] was found to be 87 µM.
In the case of `CCCCCCCCCC(=O)N[C@H](CNC(=O)N[C@@H](CCN)CNC(=O)N[C@@H](CCN)CN[C@H](CNC(=O)N[C@H](CNC(N)=O)CC(C)C)CC(C)C)Cc1ccccc1`, the MIC in data set [1] was 10 µg/mL (≈ 11.8 µM); in [9], 30 µg/mL (≈ 35.4 µM); in [2] it was 10 µg/mL (≈ 11.8 µM); in data set [10], 30 µg/mL (≈ 35.4 µM); in data set [3], 10 µg/mL (≈ 11.8 µM); in data set [12], 30 µg/mL (≈ 35.4 µM). Further, the MIC is 20 µg/mL (≈ 23.6 µM) in data set [4]; 10 µg/mL (≈ 11.8 µM) in data set [5]; 30 µg/mL (≈ 35.4 µM) in data set [13]; 30 µg/mL (≈ 35.4 µM) in data set [14]; 10 µg/mL (≈ 11.8 µM) in data set [6]. Moreover, the metabolised at 96 h in [7] was found to be 8%. For the same compound, the CAC in [8] is 56 µM.
As to `NC(=O)[C@H](Cc1ccccc1)NC(=O)[C@H](Cc1ccccc1)NC(=O)[C@@H]1CCCN1C(=O)[C@@H](N)Cc1ccc(O)cc1` [ENDOMORPHIN 2], the Stability entry in [15] is “Unstable”.
